ChEMBL document CHEMBL2424650, “Optimization of anti-proliferative activity using a screening approach with a series of bis-heterocyclic G-quadruplex ligands” (Bioorg Med Chem Lett, 2013)

How the values were obtained:
[1] = Binding affinity to duplex DNA (unknown origin) assessed as change in melting temperature at 1 uM by FRET assay
[2] = Binding affinity to 21-mer Hsp90A promoter quadruplex (unknown origin) assessed as change in melting temperature at 1 uM by FRET assay
[3] = Binding affinity to c-kit2 G4-quadruplex DNA (unknown origin) assessed as change in melting temperature at 1 uM by FRET assay
[4] = organism: Homo sapiens; test: Binding affinity to human F21T G4-telomeric quadruplex assessed as change in melting temperature at 1 uM by FRET assay
[5] = Antiproliferative activity against human […] cells after 96 hrs by SRB assay; type: cell-based; conditions: WI-38, 96 h
[6] = test system: A549; test: Antiproliferative activity against human A549 cells after 96 hrs by SRB assay; type: functional, cell-based; conditions: A549, 96 h
[7] = Antiproliferative activity against human RCC4 cells after 96 hrs by SRB assay; type: functional, cell-based; conditions: RCC4, 96 h
[8] = test system: 786-0; test: Antiproliferative activity against human 786-0 cells after 96 hrs by SRB assay; type: functional, cell-based; conditions: 786-0, 96 h
[9] = test system: MCF7; test: Antiproliferative activity against human MCF7 cells after 96 hrs by SRB assay; type: functional, cell-based; conditions: MCF7, 96 h
[10] = Binding affinity to duplex DNA (unknown origin) assessed as change in melting temperature at 5 uM by FRET assay
[11] = Binding affinity to c-kit2 G4-quadruplex DNA (unknown origin) assessed as change in melting temperature at 5 uM by FRET assay
[12] = organism: Homo sapiens; test: Binding affinity to human F21T G4-telomeric quadruplex assessed as change in melting temperature at 5 uM by FRET assay
[13] = Binding affinity to 21-mer Hsp90A promoter quadruplex (unknown origin) assessed as change in melting temperature at 5 uM by FRET assay

| SMILES | ΔTm [1] | ΔTm [2] | ΔTm [3] | ΔTm [4] | IC50 [6] | IC50 [8] | IC50 [9] | ΔTm [10] | ΔTm [11] | ΔTm [12] | ΔTm [13] | IC50 [5] | IC50 [7] |
| --- | --- | --- | --- | --- | --- | --- | --- | --- | --- | --- | --- | --- | --- |
| c1cc(-c2cnc(-c3cccc(CN4CCCCC4)c3)o2)cc(-c2cnc(-c3cccc(CN4CCCCC4)c3)o2)c1 | 2 °C | 5 °C | < 2 °C | < 2 °C | 1200 nM | 2300 nM | 1400 nM |  |  |  |  | 4400 nM | 1900 nM |
| c1cc(-c2cnc(-c3cccc(OCCN4CCCC4)c3)o2)cc(-c2cnc(-c3cccc(OCCN4CCCC4)c3)o2)c1 | 0 °C | 3.4 °C | < 2 °C | < 2 °C | 1000 nM | 700 nM | 1200 nM | 5.3 °C | 20.3 °C | 25.9 °C | 27.7 °C | 1000 nM | 1300 nM |
| CCN(CC)CCNc1cccc(-c2ncc(-c3cccc(-c4cnc(-c5cccc(NCCN(CC)CC)c5)o4)c3)o2)c1 | 0 °C | < 2 °C | < 2 °C | < 2 °C | 2500 nM | 1300 nM | 3100 nM | 0 °C | 13.6 °C | 13.3 °C | 19.5 °C | 2800 nM | 1100 nM |
| CN1CCN(CCCNc2ccc(-n3cc(-c4ccc5ccc(-c6cn(-c7ccc(NCCCN8CCN(C)CC8)cc7)nn6)cc5c4)nn3)cc2)CC1 | 0 °C | < 2 °C | < 2 °C | < 2 °C | > 25000 nM | > 25000 nM | > 25000 nM | 0 °C | < 10 °C | < 10 °C | < 10 °C | > 25000 nM | > 25000 nM |
| CN1CCN(CCCNc2cccc(-n3cc(-c4ccc5ccc(-c6cn(-c7cccc(NCCCN8CCN(C)CC8)c7)nn6)cc5c4)nn3)c2)CC1 | 0 °C | 5.7 °C | 2.4 °C | 2.9 °C | > 25000 nM | 8700 nM | > 25000 nM | 0 °C | < 10 °C | < 10 °C | < 10 °C | 15300 nM | 8400 nM |

Second part, led by results:

| ΔTm [1] | ΔTm [2] | ΔTm [3] | ΔTm [4] | IC50 [6] | IC50 [8] | IC50 [9] | ΔTm [10] | ΔTm [11] | ΔTm [12] | ΔTm [13] | SMILES | IC50 [5] | IC50 [7] |
| --- | --- | --- | --- | --- | --- | --- | --- | --- | --- | --- | --- | --- | --- |
| 0 °C | < 2 °C | < 2 °C | < 2 °C | 600 nM | 1100 nM | 2100 nM | 6.8 °C | 17 °C | 24.7 °C |  | c1cc(-c2cnc(-c3cccc(NCCN4CCCC4)c3)o2)cc(-c2cnc(-c3cccc(NCCN4CCCC4)c3)o2)c1 | 1000 nM | 1100 nM |
| 0 °C | < 2 °C | < 2 °C | < 2 °C | 1200 nM | 900 nM | 1000 nM | 0 °C | 18.3 °C | 20.1 °C | 25.6 °C | CN1CCN(CCCNc2cccc(-c3ncc(-c4cccc(-c5cnc(-c6cccc(NCCCN7CCN(C)CC7)c6)o5)c4)o3)c2)CC1 | 1100 nM | 1200 nM |
| 0 °C | 2.5 °C | < 2 °C | < 2 °C | 1600 nM | 1200 nM | 1900 nM | 0 °C | < 10 °C | < 10 °C | < 10 °C | CN1CCN(CCCNc2cccc(-c3ncc(-c4ccc5ccc(-c6cnc(-c7cccc(NCCCN8CCN(C)CC8)c7)o6)cc5c4)o3)c2)CC1 | 3100 nM | 2100 nM |
